This note sets out measurements from paper PMC10707992 (2023).

For this assay, the system named is FAM-Apt (DNA, aptamer) ATCACGTGTTGTCTCTCTGTGTCTCGTG
Briefly: FRET strand-displacement assay (fluorescence recovery). Conditions: 20 mM Mg-acetate, 100 mM Na-acetate; Tris-acetate pH 8.5, 25 °C; 3'-RTQ1 cDNA CAGAGAGAC not displaced; tested at 1 µM.

`C[C@H]1CCCC(=O)CCC/C=C/c2cc(O)cc(O)c2C(=O)O1`: the binding entry is “no”. The same measure for `C[C@@H]1Cc2c(Cl)cc(C(=O)N[C@@H](Cc3ccccc3)C(=O)O)c(O)c2C(=O)O1`: “no”.
